Assay results taken from patent US12203941B2, “Methods and compositions for diagnosis and prognosis of renal injury and renal failure” (ASTUTE MEDICAL, INC., priority 2013, dated 2025).
Read-outs that look alike come from different tables or passages of the source.

Columns and labels:
[1] = tested on: patients without AKI; conditions: previous investigators; cited from earlier work
[2] = tested on: critically ill patients with either stage I or II Acute Kidney Injury Network (AKIN) criteria; conditions: for Urine volume, Hour 1: Hour 1 after FST; for Urine volume, Hour 1 / Urine volume, Hour 2 / Urine volume, Hour 3 / Urine volume, Hour 4 / Urine volume, Hour 5 / Urine volume, Hour 6: mean (s.e.); for Urine volume, Hour 2: Hour 2 after FST; for Urine volume, Hour 3: Hour 3 after FST; for Urine volume, Hour 4: Hour 4 after FST; for Urine volume, Hour 5: Hour 5 after FST; for Urine volume, Hour 6: Hour 6 after FST; for Tolerability / adverse events attributable to the FST: critically ill patients with AKI, well-resuscitated, iv furosemide 1.0 or 1.5 mg/kg, urine output replaced with isotonic fluids when appropriate
Description: Replacement fluid was not protocolized in this group of subjects. Demographic, clinical data, urine sediment scores, and outcome data were abstracted from the case report forms.
Prior to FST urine was collected. […] In order to minimize the risk of hypovolemia, urine output was replaced ml for ml each hour with either Ringers lactate or normal saline for six hours after the FST. The treating team could elect not to replace the volume if net volume loss was considered clinically desirable.
Urine output was measured hourly for six hours and in total for 24 hours. […] Patients were followed for 14 days or hospital discharge, whichever occurred first. Fractional excretion of sodium was calculated as described in Bagshaw and colleagues. MDRD equation was used to calculate the eGFR as described in Levey and colleagues. Cardiovascular SOFA score and APACHE II score were calculated as previously described.

NS(=O)(=O)c1cc(C(=O)O)c(NCc2ccco2)cc1Cl [Furosemide]
Time of maximum diuretic effect [1]: within the first three hours
Urine volume, Hour 1 ([2]; Combined n = 77, furosemide 1.0 or 1.5 mg/kg iv): 251 (35.2) ml
Urine volume, Hour 1 ([2]; Furosemide Naive n = 29): 331 (68.5) ml
Urine volume, Hour 1 ([2]; Non-naive N = 48): 258 (37.2) ml
Urine volume, Hour 2 ([2]; Combined n = 77): 296 (35.8) ml
Urine volume, Hour 2 ([2]; Furosemide Naive n = 29): 348 (66.6) ml
Urine volume, Hour 2 ([2]; Non-naive N = 48): 264 (40.9) ml
Urine volume, Hour 3 ([2]; Combined n = 77): 246 (26.6) ml
Urine volume, Hour 3 ([2]; Furosemide Naive n = 29): 285 (52.1) ml
Urine volume, Hour 3 ([2]; Non-naive N = 48): 223 (28.6) ml
Urine volume, Hour 4 ([2]; Combined n = 77): 207 (24.1) ml
Urine volume, Hour 4 ([2]; Furosemide Naive n = 29): 240 (48.6) ml
Urine volume, Hour 4 ([2]; Non-naive N = 48): 188 (25.4) ml
Urine volume, Hour 5 ([2]; Combined n = 77): 175 (18.6) ml
Urine volume, Hour 5 ([2]; Furosemide Naive n = 29): 204 (35.9) ml
Urine volume, Hour 5 ([2]; Non-naive N = 48): 157 (22.5) ml
Urine volume, Hour 6 ([2]; Combined n = 77): 155 (17.4) ml
Urine volume, Hour 6 ([2]; Furosemide Naive n = 29): 167 (33.6) ml
Urine volume, Hour 6 ([2]; Non-naive N = 48): 147 (19.6) ml
Tolerability / adverse events attributable to the FST [2]: these complications were not observed in this study
Tolerability / adverse events attributable to the FST ([2]; listed as furosemide): well tolerated with no episodes of hypotension or any other adverse event deemed attributable to the test
Time of maximum urine flow rate (UFR) after FST ([2]; hourly urine output for six hours after iv furosemide): within the first two to three hours
Mean UO in response to the challenge ([2]; in 6 hours after FST): over 1.3 liters
